In patent US20130123282A1, “SOLID STATE FORMS OF LINAGLIPTIN” (priority 2011, published 2013):

Key:
Assay type in all cases: physicochemical
[1] = Polymorphic stability on storage under different relative humidity levels (XRD)
Excerpt: In addition to the properties mentioned above, Form XXII is particularly important as it can be obtained and exist at ambient conditions as single, pure phase. […] is also particularly advantageous, for example, in being non-hygroscopic and polymorphic stable under different relative humidity levels.
(§1) In addition to the properties mentioned above, Form XXII is particularly important as it can be obtained and exist at ambient conditions as single, pure phase. […] Form XXII is also non-hygroscopic and polymorphic stable under different relative humidity levels.
The XRD analyses were performed on ARL (SCINTAG) powder X-Ray diffractometer model X′TRA equipped with a solid state detector. Copper radiation of 1.5418 Å was used. Scanning parameters: range: 2-40 degrees two-theta; scan mode: continuous scan; step size: 0.05°, and a rate of 3 deg/min. The position of the silicon (111) peak was corrected to be 28.45 degrees two theta. The positions of the XRD peaks for the Linagliptin forms were corrected respectively. […]

[2] = Polymorphic stability when slurried in solvents; settings: slurrying in different solvents, such as acetonitrile and ethanol
Excerpt: as §1

[3] = Hygroscopicity according to Ph.Eur. chapter 5.11; settings: non-hygroscopic = less than 0.2% (w/w) absorption of water, Ph.Eur. 5.11
Excerpt: As used herein, and unless stated otherwise, the term “non-hygroscopic” in relation to crystalline Linagliptin refers to less than 0.2% (w/w) absorption of water, for example atmospheric water, by the crystalline Linagliptin, as determined according to Ph.Eur. chapter 5.11 (“Hygroscopicity”)

| solid form found by XRD after exposure to humidity ([1]; exposed to 100% relative humidity for 7 days) | polymorphic transformation on slurrying [2] | hygroscopicity [3] | Structure (SMILES) | polymorphic transformation on storage ([1]; stored for 7 days at room temperature under 0-80% relative humidity) | polymorphic transformation on storage ([1]; stored for 7 days at room temperature under 0-100% relative humidity) |
| --- | --- | --- | --- | --- | --- |
| Linagliptin form XII | – | – | CC#CCn1c(N2CCC[C@@H](N)C2)nc2c1c(=O)n(Cc1nc(C)c3ccccc3n1)c(=O)n2C [Form X, Linagliptin] | no polymorphic transformation is observed | – |
| – | do not transform to other forms | non-hygroscopic | CC#CCn1c(N2CCC[C@@H](N)C2)nc2c1c(=O)n(Cc1nc(C)c3ccccc3n1)c(=O)n2C [Form XXII, Linagliptin] | – | no polymorphic transformation is observed |
